Source: ChEMBL document CHEMBL5608163, “Structure modification of anoplin for fighting resistant bacteria” (Eur J Med Chem, 2024)
In brackets after ≈: the same amount, converted by molar mass. Square brackets hold non-standard residues; d marks the D form. Peptide text beside a SMILES is read from it. 2Nal = N[C@@H](Cc1ccc2ccccc2c1)C(=O)O; hIle = CC[C@H](C)C[C@H](N)C(=O)O; Cha = N[C@@H](CC1CCCCC1)C(=O)O

What was measured:
Staphylococcus aureus = experiment: Antibacterial activity against methicillin-resistant Staphylococcus aureus ATCC 33591 assessed as reduction in bacterial growth incubated for 18 hrs by agar dilution method; type: functional
[1] = Hemolytic activity in human RBC assessed as hemolysis measured after 24 hrs; type: toxicity, cell-based, Erythrocyte; conditions: red blood cells
Enterococcus faecium = experiment: Antibacterial activity against vancomycin resistant Enterococcus faecium ATCC 700221 assessed as inhibition of bacterial growth incubated for 48 hrs by CLSI-based broth microdilution assay; type: functional
Pseudomonas aeruginosa = experiment: Antibacterial activity against Pseudomonas aeruginosa ATCC 27853 assessed as reduction in microbial growth incubated for 16 to 20 hrs by CLSI protocol based Muller Hinton broth assay; type: functional; conditions: time 16-20 hrs
Escherichia coli = experiment: Antibacterial activity against Escherichia coli ATCC 25922 assessed as reduction in microbial growth incubated for 16 to 20 hrs by CLSI protocol based Muller Hinton broth assay; type: functional; conditions: time 16-20 hrs
Erythrocyte = experiment: Hemolytic activity in mouse Red blood cells incubated for 1 hr by microplate reader assay; type: toxicity, cell-based; conditions: erythrocyte, 1 h

| Structure (SMILES) | MIC (Staphylococcus aureus) [µM] | HC50 at 24 h [1] [µM] | MIC (Enterococcus faecium) [µM] | MIC (Pseudomonas aeruginosa) [µM] | MIC (Escherichia coli) [µM] | HC10 (Erythrocyte) [µM] |
| --- | --- | --- | --- | --- | --- | --- |
| CC[C@H](C)C[C@H](NC(=O)[C@H](CCCNC(=N)N)NC(=O)[C@H](CCCCN)NC(=O)[C@H](CC(C)C)NC(=O)[C@H](CC1CCCCC1)NC(=O)CN)C(=O)N[C@@H](CCCCN)C(=O)N[C@H](C(=O)N[C@@H](CC(C)C)C(=O)N[C@@H](CC(C)C)C(N)=O)[C@@H](C)O (H-G[Cha]LKR[hIle]KTLL-NH2) | 85.3 (≈ 103 µg/mL) | 195 | 15.8 (≈ 19.1 µg/mL) | 28.4 | 25 |  |
| CC[C@H](C)C[C@H](NC(=O)[C@H](CCCNC(=N)N)NC(=O)[C@H](CCCCN)NC(=O)[C@H](CC(C)C)NC(=O)[C@H](CC(C)C)NC(=O)CN)C(=O)N[C@@H](CCCCN)C(=O)N[C@H](C(=O)N[C@@H](CC1CCCCC1)C(=O)N[C@@H](CC(C)C)C(N)=O)[C@@H](C)O (H-GLLKR[hIle]KT[Cha]L-NH2) | 47.4 (≈ 57.2 µg/mL) | 234 | 28.4 (≈ 34.3 µg/mL) | 28.4 | 28.4 |  |
| CC(C)C[C@H](NC(=O)[C@H](CC(C)C)NC(=O)[C@@H](NC(=O)[C@H](CCCCN)NC(=O)[C@H](CC1CCCCC1)NC(=O)[C@H](CCCNC(=N)N)NC(=O)[C@H](CCCCN)NC(=O)[C@H](CC(C)C)NC(=O)[C@H](CC(C)C)NC(=O)CN)[C@@H](C)O)C(N)=O (H-GLLKR[Cha]KTLL-NH2) | 28.4 (≈ 33.9 µg/mL) | 304 | 6 (≈ 7.16 µg/mL) | 15.8 | 28.4 |  |
| CC[C@H](C)C[C@H](NC(=O)[C@H](CCCNC(=N)N)NC(=O)[C@H](CCCCN)NC(=O)[C@H](CC(C)C)NC(=O)[C@H](CC(C)C)NC(=O)CN)C(=O)N[C@@H](CCCCN)C(=O)N[C@H](C(=O)N[C@@H](CC(C)C)C(=O)N[C@@H](CC1CCCCC1)C(N)=O)[C@@H](C)O (H-GLLKR[hIle]KTL[Cha]-NH2) | 28.4 (≈ 34.3 µg/mL) | 317 | 26.3 (≈ 31.8 µg/mL) | 28.4 | 12.5 |  |
| CC[C@H](C)[C@H](NC(=O)[C@H](CCCNC(=N)N)NC(=O)[C@H](CCCCN)NC(=O)[C@H](Cc1ccc2ccccc2c1)NC(=O)[C@H](CC(C)C)NC(=O)CN)C(=O)N[C@@H](CCCCN)C(=O)N[C@H](C(=O)N[C@@H](CC(C)C)C(=O)N[C@@H](CC(C)C)C(N)=O)[C@@H](C)O (H-GL[2Nal]KRIKTLL-NH2) | 28.4 (≈ 35.1 µg/mL) | 172 | 9.5 (≈ 11.8 µg/mL) | 9.5 | 28.4 |  |
| CC[C@H](C)[C@H](NC(=O)[C@H](Cc1ccccc1)NC(=O)[C@H](CCCCN)NC(=O)[C@H](CC(C)C)NC(=O)[C@H](CC(C)C)NC(=O)CN)C(=O)N[C@@H](CCCCN)C(=O)N[C@@H](Cc1c[nH]c2ccccc12)C(=O)N[C@@H](CC(C)C)C(=O)N[C@@H](CC(C)C)C(N)=O (H-GLLKFIKWLL-NH2) | 7.4 (≈ 9.1 µg/mL) | 0.6 | 0.8 (≈ 0.984 µg/mL) | 256 | 22.1 |  |
| CC[C@H](C)[C@H](NC(=O)[C@H](CCCNC(=N)N)NC(=O)[C@@H](CCCCN)NC(=O)[C@H](CC(C)C)NC(=O)[C@H](CC(C)C)NC(=O)CN)C(=O)N[C@@H](CCCCN)C(=O)N[C@@H](C(=O)N[C@@H](CC(C)C)C(=O)N[C@@H](CC(C)C)C(N)=O)[C@H](C)O |  |  |  |  |  | > 300 |
| CC[C@H](C)C[C@H](NC(=O)[C@H](CCCNC(=N)N)NC(=O)[C@H](CCCCN)NC(=O)[C@H](CC1CCCCC1)NC(=O)[C@H](CC(C)C)NC(=O)CN)C(=O)N[C@@H](CCCCN)C(=O)N[C@H](C(=O)N[C@@H](CC(C)C)C(=O)N[C@@H](CC(C)C)C(N)=O)[C@@H](C)O (H-GL[Cha]KR[hIle]KTLL-NH2) | 28.4 (≈ 34.3 µg/mL) | 436 | 28.4 (≈ 34.3 µg/mL) | 28.4 | 28.4 |  |
